From US20220267288A1, “CARDIAC THERAPEUTIC” (priority 2019, published 2022)

Experiments:
[1] = system: dogs; test: Electrophysiological variables (AERP, VERP, repolarization periods) in halothane-anesthetized dogs; format: in vivo, dog; settings: 3 mg/kg
Method: Animals were obtained through Kitayama Labes Co., Ltd. (Nagano, Japan). All experiments were approved by the Toho University Animal Care and User Committee (No. 18-51-395) and performed according to the Guideline for the Care and Use of Laboratory Animals of Toho University.
The dogs were initially anesthetized with thiopental sodium (30 mg/kg, i.v.). After intubation with a cuffed endotracheal tube, anesthesia was maintained by inhalation of halothane (1% v/v) vaporized in oxygen with a volume-limited ventilator (SN-480-3; Shinano Manufacturing Co., Ltd., Tokyo, Japan). Tidal volume and respiratory rate were set at 20 mL/kg and 15 breaths/min, respectively. […] To prevent blood clotting, heparin calcium (100 IU/kg) was intravenously administered through a flush line of the catheter sheath placed at the right femoral vein.
The lead II electrocardiogram was obtained from the limb electrodes. The P-wave duration, PR interval, QRS width and QT interval were measured, and QT interval was corrected with Van de Water's formula: QTc=QT-0.087×(RR-1,000) with RR given in ms. The J-Tpeak and Tpeak-Tend were measured as follows. When the end of T-wave was obscure, we used the monophasic action potential (MAP) signal as a guide to estimate the end. The J-Tpeak was corrected for the heart rate with a coefficient as previously described (J-Tpeakc=J-Tpeak/RR^0.58 with RR given in seconds).
A standard 6-French, quad-polar electrodes catheter (Cordis-Webster Inc., Baldwin Park, Calif., USA) was positioned at the non-coronary cusp of the aortic valve through the left femoral artery to obtain the His bundle electrogram. Another 6-French, quad-polar electrode catheter (Cordis-Webster Inc.) was positioned at the sinus nodal areas of the right atrium through the right femoral vein to electrically pace and to record the local electrogram. A bi-directional steerable MAP recording/pacing combination catheter (1675P; EP Technologies, Inc., CA, USA) was positioned at the endocardium of the interventricular septum in the right ventricle through the left femoral vein to obtain MAP signals. The signals were amplified with a DC preamplifier (model 300; EP Technologies, Inc.). The duration of the MAP signals was measured as an interval, along a horizontal line corresponding to the diastolic baseline, from the MAP upstroke to the desired repolarization level. The interval (ms) at 90% repolarization was defined as MAP90.
The heart was electrically driven with a cardiac stimulator (SEC-3102; Nihon Kohden Co., Ltd.) via the pacing electrodes of the combination catheter placed in the right ventricle or the electrodes of the catheter placed at the right atrium. The stimulation pulses were rectangular in shape, 1-2 V (about twice the threshold voltage) and 1 ms duration. The MAP90 of the ventricle was measured during sinus rhythm (MAP90(sinus)) and at a pacing cycle length of 400 ms (MAP90(CL400)) and 300 ms (MAP90(CL300)). The atrial effective refractory period (AERP) and ventricular effective refractory period (VERP) were assessed with the programmed electrical stimulation. The pacing protocol consisted of 5 beats of basal stimuli in a cycle length of 400 ms followed by an extra stimulus of various coupling intervals. Starting in the late diastole, the coupling interval was shortened in 5-ms decrements until the additional stimulus could no longer elicit a response. The AERP and VERP were defined as the shortest coupling interval that could produce a response. The duration of the terminal repolarization period of the ventricle, reflecting phase-3 repolarization time of the action potential, was calculated by the difference between the MAP90(CL400) and VERP (terminal repolarization period=MAP90(CL400)−VERP) at the same site to estimate the extent of electrical vulnerability of the ventricular muscle.

[2] = system: H9c2 cells; test: Mitochondrial membrane potential (Δψm) dissipation, TMRM dye; format: cell-based; settings: pre-treatment, then dronedarone at 5 μM
Method: (§1) H9c2 cell line was purchased from American Tissue Type Collection (ATCC) (Manassas, Va.). The cells were cultured in low-glucose DMEM growth media (Cat No: 31600, Thermo Fisher Scientific, Waltham, Mass.) supplemented with 1.5 g/L sodium bicarbonate, 25 mM HEPES, 10% fetal bovine serum (FBS) (GE Healthcare, Singapore), 100 units/mL penicillin, 100 μg/mL streptomycin and 250 ng/mL amphotericin B in 75-cm^2 tissue-culture flasks at 37° C. in a humidified atmosphere of 5% CO2. Cells were fed every 2-3 days and sub-cultured once 70-80% confluency was achieved to prevent the loss of differentiation potential. For differentiation, H9c2 cells were seeded at a density of 100,000 cells/well in 12-well plates. The cells were maintained for 1 day in low-glucose high-serum growth media to allow for cell attachment. Subsequently, cells were differentiated using 1 μM ATRA.
Dissipation of Δψm by each test compound was measured using mitochondrial permeable dye, tetramethylrhodamine methyl ester perchlorate (TMRM) (Thermo Fisher Scientific, Waltham, Mass.). […] The media was aspirated, the cells were washed with PBS and fluorescence was measured at 557 nm excitation and 570 nm emission wavelengths. […] The media was aspirated and then the cells were treated with dronedarone and the dissipation of Δψm by AADs was measured as described.

[3] = system: H9c2 cells; test: Reduction of intracellular ATP (Mitochondrial ToxGlo) in differentiated H9c2 cells; format: cell-based; settings: 0-1 μM pre-treatment 2 h, then dronedarone
Method: as §1
H9c2 cells were seeded in a white chimney plate and differentiated. The media was changed to DMEM with 10 mM galactose, 2 mM glutamine (6 mM final), 5 mM HEPES, 1 mM sodium pyruvate, 100 U/mL penicillin, 100 μg/mL streptomycin, 0.25 μg/mL amphotericin B, 1% FBS, 1× insulin-transferrin-selenium and 1 μM ATRA for 48 h to overcome the Crabtree effect. […] The cytotoxicity and intracellular ATP content were measured concurrently using Mitochondrial ToxGlo™ kit (Promega, Madison, Wis.) using manufacturer's protocol. Mitochondrial ToxGlo™ assay measures the cell viability using fluorogenic peptide bis-alanine-alanine-phenylalanine-R110 (bis-AAF-R110). Bis-AAF-R110 is a selective peptide that measures protease activity in dead cells since it is impermeable to live cells. Here, the fluorescence derived from metabolized bis-AAF-R110 was measured at different concentrations of the test compounds and compared to control. As the concentration of cytotoxic compound increases, the number of dead cells increases, leading to a higher fluorescence signal. ATP is measured by adding the ATP Detection Reagent, resulting in cell lysis and generation of a luminescent signal proportional to the amount of ATP present. […]

[4] = system: hiPSC-CM; test: Extracellular field potential duration (FPD), multi electrode array; format: cell-based, human; settings: MEA, 0-10 μM
Method: Electrophysiological perturbations of hiPSC-CM were measured using multi electrode array (MEA) recording system (Multichannel Systems, Reutlingen, Germany). […] FPD measurements were normalized (corrected FPD [cFPD]) to the beating rate of the contracting areas with the Bazzet correction formula: cFPD=FPD/√(RR interval) as described previously^3. One-phase decay algorithm was used to plot corrected FPD curves.

[5] = molecular target: T1, CYP2J2 (Homo sapiens, UniProt P51589); test: Time- and concentration-dependent inactivation (MBI) of CYP2J2, rivaroxaban as probe substrate; format: biochemical; design: purchased BD Gentest (Woburn, Mass.)
T1 sequence (P51589 1-502): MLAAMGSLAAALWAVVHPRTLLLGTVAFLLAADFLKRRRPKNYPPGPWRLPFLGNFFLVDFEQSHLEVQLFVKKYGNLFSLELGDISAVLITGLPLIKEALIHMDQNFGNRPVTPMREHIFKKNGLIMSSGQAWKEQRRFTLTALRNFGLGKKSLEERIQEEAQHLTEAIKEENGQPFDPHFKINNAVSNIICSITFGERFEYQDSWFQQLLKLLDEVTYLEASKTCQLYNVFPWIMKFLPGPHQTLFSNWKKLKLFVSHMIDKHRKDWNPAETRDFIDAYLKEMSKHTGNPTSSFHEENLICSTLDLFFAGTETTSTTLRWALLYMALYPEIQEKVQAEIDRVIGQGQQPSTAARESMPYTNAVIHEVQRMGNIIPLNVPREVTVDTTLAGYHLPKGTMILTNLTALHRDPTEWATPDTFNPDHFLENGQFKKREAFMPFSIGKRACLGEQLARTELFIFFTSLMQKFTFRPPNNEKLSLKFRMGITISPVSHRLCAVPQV
Method: Incubations were conducted in triplicates in 96-well plates. Primary incubation mixtures comprising various concentrations of inhibitor (0-20 μM) were pre-incubated at 37° C. for 3 min with CYP450 enzymes (20 pmol/m L) and NADPH B in potassium phosphate buffer (100 mM, pH 7.4). To initiate the enzymatic reaction, 5 μL NADPH A was added to the primary incubation. The final primary incubation mixture volume was 100 μL and contained <1% v/v organic solvent. At different pre-incubation time points (3, 8, 15, 22, 30, and 45 min) after the addition of NADPH A, 5 μL aliquots of the primary incubation were transferred to 95 μL of the secondary incubation containing 50 μM rivaroxaban, the NADPH A and B, and potassium phosphate buffer (100 mM, pH 7.4) to yield a 20-fold dilution. The secondary incubation mixtures were incubated at 37° C. for 30 min with CYP2J2, before 80 μL aliquots were removed and quenched with an equal volume of ice-cold ACN containing 4 μM dexamethasone as IS. The samples were then centrifuged at 3220 g at 4° C. for 30 min before transferring the supernatant to a 96-well plate for liquid chromatography-tandem mass spectrometry (LC-MS/MS) analysis. The main rivaroxaban metabolite, morpholinone hydroxylated metabolite, was quantified using LC-MS/MS analysis.
The mean of triplicate peak area ratios for each concentration and pre-incubation time was normalized to that of 0 μM with the same pre-incubation time. The amount of rivaroxaban metabolite formed during the secondary incubation, a measure of the probe substrate activity remaining, was computed and the natural logarithm of this measure was plotted against inactivation pre-incubation time for each inactivator concentration. […]
In equation 1, kinact=maximum inactivation rate constant at infinite inactivator concentration (in min^−1); KI=concentration of inactivator at the half-maximal rate constant of inactivation (in μM); [I]=in vitro inactivator concentration (in μM). MBI potency (kinact/KI ratio, μM-1·min-1) against human recombinant CYP2J2 is determined for each compound. […]

[6] = system: CYP2J2
Method: The human ES cell line (H7 ESCs) with a knocked in, constitutively expressed Genetically Encoded Calcium Indicator (GECI) GCaMP6s was maintained on matrigel coated plates in StemMACS™ iPS-Brew XF (Miltenyi Biotec) and passaged in clumps using Collagenase IV (1 mg/mL) enzymatic treatment. For differentiation, ESCs were passaged in single cells using Accutase (Nacalai Tesque), and subjected to the previously established small molecule based GiWi cardiomyocyte differentiation protocol. At Day 7, the media was replaced with RPMI1640 (HyClone) supplemented with B27 with insulin (B27+) (Miltenyi Biotec) for maturation and refreshed every 2 days. […] The cardiomyocytes (H7 CMs) were used for siRNA transfections on day 28. […]
RNA samples (250 ng) were reverse transcribed to obtain cDNA using High-Capacity cDNA Reverse Transcription Kit (Applied Biosystems, U.S.A.). qPCR was performed using the FAST SYBR Green Mix (Applied Biosystems, U.S.A.) on 5 ng of cDNA. ΔΔCT-based relative quantification method was adopted for qPCR analysis using the QuantStudio 5 384-well Block Real-Time PCR system (Applied Biosystems, U.S.A.). The threshold cycle was determined to be Data is presented as fold-change where CT values were normalised to β-ACT/N. Data presented are representative of two independent experiments with error bars indicative of the standard deviation (SD) unless otherwise stated.

CC(C)NCC(O)c1ccc(NS(C)(=O)=O)cc1 (racemic) [dl-sotalol]
ΔJ-Tpeakc (early repolarization period) ([1]; 10 min after administration): +35
ΔTRP (terminal repolarization period) ([1]; 10 min after administration): −1
ΔTpeak-Tend (late repolarization period) ([1]; 10 min after administration): +17
Atrial selectivity (ΔAERP/ΔVERP) ([1]; 20 min after administration): 1.1
ΔAERP ([1]; 20 min after administration): +60
ΔVERP ([1]; 20 min after administration): +53
Atrial selectivity (ΔAERP/ΔVERP) ([1]; 30 min after administration): 1.0
ΔAERP ([1]; 30 min after administration): +56
ΔVERP ([1]; 30 min after administration): +54

CCCCCC1OC1C/C=C\C/C=C\C/C=C\CCCC(=O)O (stereo not shown) [14,15-EET]
effect of pre-treatment on dronedarone-induced Δψm dissipation [2]: concentration-dependent mitigation of Δψm dissipation
effect of pre-treatment on dronedarone-induced decrease in intracellular ATP [3]: mitigated the decrease in intracellular ATP levels in a concentration-dependent manner

CCCCc1oc2ccccc2c1C(=O)c1cc(I)c(OCCN(CC)CC)c(I)c1 [Amiodarone]
ΔJ-Tpeakc (early repolarization period) ([1]; 15 min after administration): −10
ΔTRP (terminal repolarization period) ([1]; 15 min after administration): −11
ΔTpeak-Tend (late repolarization period) ([1]; 15 min after administration): +18
ΔAERP ([1]; 60 min after administration): +29
ΔVERP ([1]; 60 min after administration): +18
effect on extracellular field potential duration (FPD) [4]: Dose-dependent increase in the FPD

Cl.[2H]c1c([2H])c(C(=O)c2c(CCCC)oc3ccc(NS(C)(=O)=O)cc23)c([2H])c([2H])c1OCCCN(CCCC)CCCC [Compound 2]
inactivation (MBI) of CYP2J2, in words [5]: inactivated CYP2J2 in a time- and concentration-dependent manner

CC(C)COCC(CN(Cc1ccccc1)c1ccccc1)N1CCCC1 (stereo not shown) [bepridil]
Atrial selectivity (ΔAERP/ΔVERP) ([1]; 10 min after administration): 3.0
ΔAERP ([1]; 10 min after administration): +53
ΔVERP ([1]; 10 min after administration): +55
ΔJ-Tpeakc (early repolarization period) ([1]; 20 min after administration): +31
ΔTRP (terminal repolarization period) ([1]; 20 min after administration): +4
ΔTpeak-Tend (late repolarization period) ([1]; 20 min after administration): +14

siRNA1: Accell self-delivery siRNA against CYP2J2, CUCAGGUGUAAUAUUGUUA, SEQ ID NO: 1 (Accell self-delivery modifications, pattern not given here)
knockdown of CYP2J2, in words [6]: most effective
